Data: patent US6852863B2, “Metabolites of (3-{[4-tert-butyl-benzyl)-(pyridine-3-sulfonyl)-amino]-methyl}-phenoxy)-acetic acid” (Pfizer Inc., priority 2002, dated 2005)

Tests used:
Assay type in all cases: in vitro ADME
[1] = Metabolism of 14C-parent in human liver microsomes; details: 20 μM 14C-parent, NADPH, 30 minutes, 37° C.; HPLC radiochromatogram peak
Method: (§1) Human (HL-mix 12), rat, monkey and dog liver microsomes were prepared by differential centrifugation using standard procedures. Prior to use, liver microsomes were thawed on ice and reconstituted using 100 mM potassium phosphate pH 7.4. [^14C]-(3-{[4-tert-butyl-benzyl)-(pyridine-3-sulfonyl)-amino]-methyl}-phenoxy)-acetic acid was dissolved 100 mM potassium phosphate pH 7.4 at a final substrate concentration of 20 μM. Samples were pre-incubated for 3 min with microsomes (CYP 450; 0.5 μM) at 37° C. in a shaking water bath. Incubations were initiated with the addition of 100 μl cofactor (1.1 mM NADPH, 10 mM MgCl2) per 1 ml of incubation mixture. Incubations were stopped after 30 minutes by the addition of an equal volume of cold acetonitrile.
(§2) Metabolite quantification was performed by measuring the areas of individually separated HPLC peaks using the β-RAM (IN/US, Win-flow). […]
(§3) Identification of the metabolites was performed using a Finnigan TSQ 7000 triple quadrupole mass spectrometer equipped with an API-2 electrospray interface. […] The β-RAM response was recorded as a real time analog signal by the MS data collection system. The collected data from the radioactivity and MS detectors were separated by the dwell volume of flow from the MS to the radioactivity detector (corresponding to a dwell time of about 0.2 min.). […]

[2] = Metabolism of 14C-parent in rat liver microsomes; details: 20 μM 14C-parent, NADPH, 30 minutes, 37° C.; HPLC radiochromatogram peak
Method: as §1, §2, §3

[3] = Metabolism of 14C-parent in dog liver microsomes; details: 20 μM 14C-parent, NADPH, 30 minutes, 37° C.; HPLC radiochromatogram peak
Method: as §1, §2, §3

[4] = system: Human hepatocytes; test: Metabolism of parent in human hepatocytes; details: 20 μM parent, 2 million cells per ml, 4 hours, 37° C.; mobile phase pH 5.0
Method: Human hepatocytes were generated from a mix of 3 livers. Rat and monkey hepatocytes were generated using Sprague Dawley rats (12 livers), Cynomolgus monkey (1 liver) and Beagle dogs (2 livers). Cryopreserved hepatocytes were suspended in William's E media with 10% FBS to a viable count of 2 million cells per ml and gassed with 95/5 O2/CO2 initially and every hour of incubations. After the addition of 20 μM (3-{[4-tert-butyl-benzyl)-(pyridine-3-sulfonyl)-amino]-methyl}-phenoxy)-acetic acid to a 25 ml Erlenmeyer flask, 2.5 ml of hepatocytes suspension was added and incubated for 4 hours at 37° C. in a shaking water bath.
Metabolite quantification was performed by measuring the areas of individually separated HPLC peaks using the β-RAM (IN/US, Win-flow). The β-RAM provided integrated peak representation printouts in CPM as well as the percentage of the radiolabeled material. The β-RAM was operated using a solid scintillation cell. […]
as §3

Percent of Radioactivity, Human liver microsomes [1]: 26.5%
Percent of Radioactivity, Rat liver microsomes [2]: 4.38%
Percent of Radioactivity, Dog liver microsomes [3]: 11.5%
Percent of Radioactivity, Human hepatocytes [4]: 41.2%
Structure (SMILES): CC(C)(CO)c1ccc(CN(Cc2cccc(OCC(=O)O)c2)S(=O)(=O)c2cccnc2)cc1 [Metabolite M4, (3-{[[4-(2-hydroxy-1,1-dimethyl-ethyl)-benzyl]-(pyridine-3-sulfonyl)-amino]-methyl}-phenoxy)-acetic acid]
